In ChEMBL document CHEMBL4507281, “Data for DCP probe BI-4394” (2021):

Assays:
[1] = target: Ribosomal protein S6 kinase alpha-5 (Homo sapiens) (UniProt O75582); conditions: Compound concentration 100.0 nM
[2] = target: Interleukin-1 receptor-associated kinase 1 (Homo sapiens) (UniProt P51617); conditions: Compound concentration 100.0 nM
[3] = target: Mitogen-activated protein kinase kinase kinase 20 (Homo sapiens) (UniProt Q9NYL2); conditions: Compound concentration 100.0 nM
[4] = target: Mitogen-activated protein kinase 11 (Homo sapiens) (UniProt Q15759); conditions: Compound concentration 100.0 nM
[5] = test system: Tyrosine-protein kinase ABL1 (Homo sapiens), P00519 [T315I]; conditions: Compound concentration 100.0 nM
[6] = target: Casein kinase I isoform epsilon (Homo sapiens) (UniProt P49674); conditions: Compound concentration 100.0 nM
[7] = target: Delta-type opioid receptor (Homo sapiens) (UniProt P41143); conditions: Compound concentration 10.0 uM
[8] = target: Serine/threonine-protein kinase 25 (Homo sapiens) (UniProt O00506); conditions: Compound concentration 100.0 nM
[9] = target: Calcium/calmodulin-dependent protein kinase type II subunit beta (Homo sapiens) (UniProt Q13554); conditions: Compound concentration 100.0 nM
[10] = target: STE20/SPS1-related proline-alanine-rich protein kinase (Homo sapiens) (UniProt Q9UEW8); conditions: Compound concentration 100.0 nM
[11] = target: 5-hydroxytryptamine receptor 6 (Homo sapiens) (UniProt P50406); conditions: Compound concentration 10.0 uM
[12] = target: cAMP-dependent protein kinase catalytic subunit alpha (Homo sapiens) (UniProt P17612); conditions: Compound concentration 100.0 nM
[13] = target: Mitogen-activated protein kinase kinase kinase kinase 5 (Homo sapiens) (UniProt Q9Y4K4); conditions: Compound concentration 100.0 nM
[14] = test system: Phosphatidylinositol 4,5-bisphosphate 3-kinase catalytic subunit alpha isoform (Homo sapiens), P42336 [M1043I]; conditions: Compound concentration 100.0 nM
[15] = target: Phosphatidylinositol 3-kinase catalytic subunit type 3 (Homo sapiens) (UniProt Q8NEB9); conditions: Compound concentration 100.0 nM
[16] = target: Serine/threonine-protein kinase ICK (Homo sapiens) (UniProt Q9UPZ9); conditions: Compound concentration 100.0 nM
[17] = target: Bone morphogenetic protein receptor type-2 (Homo sapiens) (UniProt Q13873); conditions: Compound concentration 100.0 nM
[18] = test system: Phosphatidylinositol 4,5-bisphosphate 3-kinase catalytic subunit alpha isoform (Homo sapiens), P42336 [E545K]; conditions: Compound concentration 100.0 nM
[19] = target: Cyclin-dependent kinase 9 (Homo sapiens) (UniProt P50750); conditions: Compound concentration 100.0 nM
[20] = target: Casein kinase I isoform alpha (Homo sapiens) (UniProt P48729); conditions: Compound concentration 100.0 nM
[21] = target: TGF-beta receptor type-2 (Homo sapiens) (UniProt P37173); conditions: Compound concentration 100.0 nM
[22] = target: Rho-associated protein kinase 1 (Homo sapiens) (UniProt Q13464); conditions: Compound concentration 100.0 nM
[23] = target: T1, Activin receptor type-1B (Homo sapiens) (UniProt P36896); conditions: Compound concentration 100.0 nM
T1 sequence (whole entry): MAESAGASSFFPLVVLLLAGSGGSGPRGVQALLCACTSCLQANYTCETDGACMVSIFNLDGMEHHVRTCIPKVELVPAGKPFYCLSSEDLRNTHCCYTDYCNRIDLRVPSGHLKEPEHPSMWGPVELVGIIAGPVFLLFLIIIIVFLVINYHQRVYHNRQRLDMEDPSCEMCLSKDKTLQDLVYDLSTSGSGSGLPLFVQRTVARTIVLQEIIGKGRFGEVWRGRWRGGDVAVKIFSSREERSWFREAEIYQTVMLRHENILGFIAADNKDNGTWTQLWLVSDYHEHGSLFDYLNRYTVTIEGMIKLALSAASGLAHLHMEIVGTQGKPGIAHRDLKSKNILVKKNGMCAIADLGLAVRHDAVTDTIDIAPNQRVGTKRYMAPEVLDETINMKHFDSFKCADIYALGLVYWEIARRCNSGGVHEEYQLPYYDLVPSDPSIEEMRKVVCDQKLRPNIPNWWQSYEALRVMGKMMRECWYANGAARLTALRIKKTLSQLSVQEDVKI

[24] = target: Cyclin-dependent kinase 2 (Homo sapiens) (UniProt P24941); conditions: Compound concentration 100.0 nM
[25] = target: AP2-associated protein kinase 1 (Homo sapiens) (UniProt Q2M2I8); conditions: Compound concentration 100.0 nM
[26] = target: Muscarinic acetylcholine receptor M5 (Homo sapiens) (UniProt P08912); conditions: Compound concentration 10.0 uM
[27] = target: Homeodomain-interacting protein kinase 1 (Homo sapiens) (UniProt Q86Z02); conditions: Compound concentration 100.0 nM
[28] = test system: ALK tyrosine kinase receptor (Homo sapiens), Q9UM73 [L1196M]; conditions: Compound concentration 100.0 nM
[29] = test system: ALK tyrosine kinase receptor (Homo sapiens), Q9UM73 [C1156Y]; conditions: Compound concentration 100.0 nM
[30] = target: Ribosomal protein S6 kinase alpha-1 (Homo sapiens) (UniProt Q15418); conditions: Compound concentration 100.0 nM

Sequence of Homeodomain-interacting protein kinase 1 (Homo sapiens) (Q86Z02 whole entry, looked up): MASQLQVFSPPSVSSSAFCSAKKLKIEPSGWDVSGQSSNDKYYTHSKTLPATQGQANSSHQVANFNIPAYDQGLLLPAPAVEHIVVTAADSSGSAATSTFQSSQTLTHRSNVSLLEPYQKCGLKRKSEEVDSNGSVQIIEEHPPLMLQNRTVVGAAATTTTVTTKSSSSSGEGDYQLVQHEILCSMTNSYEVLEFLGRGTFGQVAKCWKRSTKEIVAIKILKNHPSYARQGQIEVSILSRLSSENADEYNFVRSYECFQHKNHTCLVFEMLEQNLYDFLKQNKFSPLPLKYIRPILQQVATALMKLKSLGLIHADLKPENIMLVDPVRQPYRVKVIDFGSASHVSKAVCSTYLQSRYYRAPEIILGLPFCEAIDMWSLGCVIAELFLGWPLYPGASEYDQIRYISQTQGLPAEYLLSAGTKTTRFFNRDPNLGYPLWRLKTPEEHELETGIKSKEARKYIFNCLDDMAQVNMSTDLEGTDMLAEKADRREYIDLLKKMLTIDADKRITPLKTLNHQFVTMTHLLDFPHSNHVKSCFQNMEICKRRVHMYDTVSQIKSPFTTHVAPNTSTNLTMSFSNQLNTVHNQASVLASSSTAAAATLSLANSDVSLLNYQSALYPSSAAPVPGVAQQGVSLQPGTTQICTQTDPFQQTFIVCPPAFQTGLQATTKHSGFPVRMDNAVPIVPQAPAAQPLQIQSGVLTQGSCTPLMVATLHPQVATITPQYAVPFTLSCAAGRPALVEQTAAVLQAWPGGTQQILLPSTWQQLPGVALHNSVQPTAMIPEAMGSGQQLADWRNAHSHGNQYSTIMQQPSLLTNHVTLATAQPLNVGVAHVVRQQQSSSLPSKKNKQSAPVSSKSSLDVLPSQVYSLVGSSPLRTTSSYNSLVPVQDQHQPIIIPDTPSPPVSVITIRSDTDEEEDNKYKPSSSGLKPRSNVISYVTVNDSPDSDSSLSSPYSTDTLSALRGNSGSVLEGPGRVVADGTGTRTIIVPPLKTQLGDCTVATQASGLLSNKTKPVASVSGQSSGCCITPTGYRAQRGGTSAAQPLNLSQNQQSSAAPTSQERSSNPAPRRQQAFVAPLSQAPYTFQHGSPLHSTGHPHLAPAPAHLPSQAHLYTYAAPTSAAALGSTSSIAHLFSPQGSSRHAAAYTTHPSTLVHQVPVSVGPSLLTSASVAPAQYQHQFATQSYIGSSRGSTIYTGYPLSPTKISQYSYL
Sequence of Mitogen-activated protein kinase kinase kinase 20 (Homo sapiens) (Q9NYL2 2-800 limits assumed): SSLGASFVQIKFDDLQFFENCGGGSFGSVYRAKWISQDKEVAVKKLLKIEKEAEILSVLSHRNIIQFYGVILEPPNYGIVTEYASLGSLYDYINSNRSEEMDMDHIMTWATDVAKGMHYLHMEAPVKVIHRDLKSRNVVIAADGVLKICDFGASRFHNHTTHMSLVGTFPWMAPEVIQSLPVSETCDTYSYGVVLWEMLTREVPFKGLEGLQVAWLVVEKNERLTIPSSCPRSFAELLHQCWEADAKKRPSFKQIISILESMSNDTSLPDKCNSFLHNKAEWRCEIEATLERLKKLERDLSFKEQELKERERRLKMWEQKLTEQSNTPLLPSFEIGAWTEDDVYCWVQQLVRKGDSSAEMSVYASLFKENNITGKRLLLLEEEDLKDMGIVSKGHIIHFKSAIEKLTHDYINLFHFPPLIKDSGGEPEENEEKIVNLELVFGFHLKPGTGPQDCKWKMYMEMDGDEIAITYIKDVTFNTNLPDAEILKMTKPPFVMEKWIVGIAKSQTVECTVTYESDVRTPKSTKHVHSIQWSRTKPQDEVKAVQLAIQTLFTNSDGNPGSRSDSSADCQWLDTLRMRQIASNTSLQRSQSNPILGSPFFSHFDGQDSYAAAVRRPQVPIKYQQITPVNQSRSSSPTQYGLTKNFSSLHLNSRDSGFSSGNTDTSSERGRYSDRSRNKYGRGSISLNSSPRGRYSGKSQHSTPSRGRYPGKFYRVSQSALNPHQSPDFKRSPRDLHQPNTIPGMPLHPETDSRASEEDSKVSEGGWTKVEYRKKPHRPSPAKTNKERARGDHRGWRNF
Sequence of Casein kinase I isoform epsilon (Homo sapiens) (P49674 whole entry, looked up, canonical isoform): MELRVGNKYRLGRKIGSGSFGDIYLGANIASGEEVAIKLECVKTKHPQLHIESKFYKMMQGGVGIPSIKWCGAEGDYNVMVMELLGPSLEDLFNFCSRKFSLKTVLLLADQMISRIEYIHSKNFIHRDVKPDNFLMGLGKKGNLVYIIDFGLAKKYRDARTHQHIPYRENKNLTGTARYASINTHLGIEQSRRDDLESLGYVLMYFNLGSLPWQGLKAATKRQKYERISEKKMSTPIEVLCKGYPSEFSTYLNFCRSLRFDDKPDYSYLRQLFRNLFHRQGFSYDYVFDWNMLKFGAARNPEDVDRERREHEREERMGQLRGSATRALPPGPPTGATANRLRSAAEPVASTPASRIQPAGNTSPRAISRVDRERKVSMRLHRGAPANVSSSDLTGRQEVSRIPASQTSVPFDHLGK
Sequence of Cyclin-dependent kinase 9 (Homo sapiens) (P50750 whole entry, canonical isoform): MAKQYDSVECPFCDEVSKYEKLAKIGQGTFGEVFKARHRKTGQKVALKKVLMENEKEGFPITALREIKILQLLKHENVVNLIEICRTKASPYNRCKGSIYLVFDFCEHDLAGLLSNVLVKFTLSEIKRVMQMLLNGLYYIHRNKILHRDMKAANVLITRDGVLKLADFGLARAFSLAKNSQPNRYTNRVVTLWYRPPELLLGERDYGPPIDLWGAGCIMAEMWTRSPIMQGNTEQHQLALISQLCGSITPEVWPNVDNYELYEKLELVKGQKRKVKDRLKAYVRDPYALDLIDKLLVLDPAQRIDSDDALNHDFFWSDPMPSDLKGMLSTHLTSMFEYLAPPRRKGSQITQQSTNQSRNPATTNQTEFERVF
Sequence of ALK tyrosine kinase receptor (Homo sapiens), Q9UM73 [C1156Y] (Q9UM73 whole entry C1156Y, looked up): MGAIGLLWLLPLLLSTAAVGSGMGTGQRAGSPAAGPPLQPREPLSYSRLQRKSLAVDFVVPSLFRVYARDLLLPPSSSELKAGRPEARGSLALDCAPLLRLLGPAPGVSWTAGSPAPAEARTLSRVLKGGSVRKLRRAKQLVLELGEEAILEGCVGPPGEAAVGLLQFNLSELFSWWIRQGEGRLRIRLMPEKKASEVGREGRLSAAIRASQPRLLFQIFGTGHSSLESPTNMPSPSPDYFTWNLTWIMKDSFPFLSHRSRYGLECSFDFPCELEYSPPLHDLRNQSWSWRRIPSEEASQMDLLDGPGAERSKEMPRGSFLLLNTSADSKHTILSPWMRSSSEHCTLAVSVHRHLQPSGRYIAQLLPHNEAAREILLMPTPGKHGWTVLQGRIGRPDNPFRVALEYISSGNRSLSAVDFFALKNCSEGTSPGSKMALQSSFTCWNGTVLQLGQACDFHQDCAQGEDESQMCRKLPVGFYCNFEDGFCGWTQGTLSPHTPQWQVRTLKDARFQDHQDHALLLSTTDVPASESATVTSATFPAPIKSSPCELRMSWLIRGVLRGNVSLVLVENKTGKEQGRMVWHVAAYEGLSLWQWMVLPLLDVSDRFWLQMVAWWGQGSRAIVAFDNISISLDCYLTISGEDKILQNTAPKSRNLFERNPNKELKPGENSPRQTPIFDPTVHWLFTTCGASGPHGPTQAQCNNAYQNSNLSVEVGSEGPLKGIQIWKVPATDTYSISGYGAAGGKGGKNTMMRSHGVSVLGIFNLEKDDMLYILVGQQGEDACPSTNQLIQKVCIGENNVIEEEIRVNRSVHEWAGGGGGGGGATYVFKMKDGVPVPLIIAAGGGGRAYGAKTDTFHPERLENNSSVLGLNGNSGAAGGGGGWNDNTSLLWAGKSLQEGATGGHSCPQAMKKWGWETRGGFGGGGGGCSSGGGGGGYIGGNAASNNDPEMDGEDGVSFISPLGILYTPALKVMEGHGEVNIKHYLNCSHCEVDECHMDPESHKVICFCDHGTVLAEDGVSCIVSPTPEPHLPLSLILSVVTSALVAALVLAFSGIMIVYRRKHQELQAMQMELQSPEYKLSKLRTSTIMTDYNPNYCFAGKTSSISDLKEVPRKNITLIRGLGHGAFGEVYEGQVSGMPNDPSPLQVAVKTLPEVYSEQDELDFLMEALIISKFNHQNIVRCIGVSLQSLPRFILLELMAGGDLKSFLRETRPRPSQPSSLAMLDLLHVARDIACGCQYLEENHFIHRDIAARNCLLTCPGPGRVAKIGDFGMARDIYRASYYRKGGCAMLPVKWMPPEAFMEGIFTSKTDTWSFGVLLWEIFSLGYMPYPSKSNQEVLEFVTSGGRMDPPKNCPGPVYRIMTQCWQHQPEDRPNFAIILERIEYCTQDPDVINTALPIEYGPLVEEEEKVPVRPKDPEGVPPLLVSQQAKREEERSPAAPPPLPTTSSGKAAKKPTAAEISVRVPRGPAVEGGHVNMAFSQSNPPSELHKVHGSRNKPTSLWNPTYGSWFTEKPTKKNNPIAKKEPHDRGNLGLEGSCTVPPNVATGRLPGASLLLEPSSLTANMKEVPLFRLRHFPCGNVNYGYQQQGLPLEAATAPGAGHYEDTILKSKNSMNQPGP
Sequence of Serine/threonine-protein kinase 25 (Homo sapiens) (O00506 whole entry, looked up): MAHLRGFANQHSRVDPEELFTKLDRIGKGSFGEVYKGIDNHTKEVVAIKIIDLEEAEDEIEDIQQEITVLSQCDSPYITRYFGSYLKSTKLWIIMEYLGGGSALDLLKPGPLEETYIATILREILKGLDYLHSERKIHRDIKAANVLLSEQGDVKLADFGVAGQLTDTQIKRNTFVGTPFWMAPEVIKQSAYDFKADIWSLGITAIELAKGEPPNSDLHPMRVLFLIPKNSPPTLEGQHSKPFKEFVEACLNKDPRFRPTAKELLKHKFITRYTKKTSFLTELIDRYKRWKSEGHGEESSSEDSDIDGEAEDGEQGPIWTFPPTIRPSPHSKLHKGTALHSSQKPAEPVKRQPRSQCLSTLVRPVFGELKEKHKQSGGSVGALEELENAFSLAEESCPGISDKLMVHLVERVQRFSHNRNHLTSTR
Sequence of ALK tyrosine kinase receptor (Homo sapiens), Q9UM73 [L1196M] (Q9UM73 whole entry L1196M, looked up): as the sequence (Q9UM73 whole entry C1156Y, looked up) above, with Y1156C, L1196M counted along it

Cn1nc(C(=O)NCc2ccc(C(=O)O)cc2)cc1-c1ccc2[nH]ccc2c1 [BI 4395]
inactive: residual activity [1] 100% | residual activity [2] 93% | residual activity [3] 80% | residual activity [4] 86% | residual activity [5] 73% | residual activity [6] 80% | inhibition [7] 0.8% | residual activity [8] 91% | residual activity [9] 91% | residual activity [10] 90% | inhibition [11] 8.85% | residual activity [12] 100% | residual activity [13] 96% | residual activity [14] 85% | residual activity [15] 93% | residual activity [16] 72% | residual activity [17] 83% | residual activity [18] 87% | residual activity [19] 82% | residual activity [20] 81% | residual activity [21] 100% | residual activity [22] 93% | residual activity [23] 83% | residual activity [24] 91% | residual activity [25] 90% | inhibition [26] -7.43% | residual activity [27] 85% | residual activity [28] 100% | residual activity [29] 65% | residual activity [30] 95%

CCOC(=O)c1cc2cc(-c3cc(C(=O)NCc4ccc(C(=O)O)cc4)nn3C)ccc2[nH]1 [BI 4394]
inactive: residual activity [1] 100% | residual activity [2] 85% | residual activity [3] 87% | residual activity [4] 98% | residual activity [5] 83% | residual activity [6] 100% | inhibition [7] -9.42% | residual activity [8] 100% | residual activity [9] 96% | residual activity [10] 85% | inhibition [11] 4.01% | residual activity [12] 85% | residual activity [13] 93% | residual activity [14] 100% | residual activity [15] 80% | residual activity [16] 85% | residual activity [17] 82% | residual activity [18] 100% | residual activity [19] 97% | residual activity [20] 88% | residual activity [21] 66% | residual activity [22] 78% | residual activity [23] 86% | residual activity [24] 90% | residual activity [25] 100% | inhibition [26] 7.64% | residual activity [27] 91% | residual activity [28] 98% | residual activity [29] 82% | residual activity [30] 84%
